Reference: patent US4427660A, “Formyl-methionyl chemotatic peptide antibiotic conjugates useful in treating infections” (priority 1982, dated 1984)
pIC50: −log10 of the molar value. “And” between values parts separate entries of the source, which are not always exact repeats. Equal entries are not always repeated. Where two headings read alike, the source gives them in different places. Positions of bridges follow the written chain, without caps; N, C: chain ends. Non-standard residues stand in square brackets, D forms with d. Residues, ends and D or L forms follow the SMILES beside them. *: point of attachment. Ileψ(thiazoline)Cys = CC[C@H](C)[C@H](N)C1=N[C@H](C(=O)*)CS1; dOrn = NCCC[C@@H](N)C(=O)O; Nle = CCCC[C@H](N)C(=O)O; For = O=C*

Key:
[1] = system: Rabbit polymorphononuclear leukocytes (neutrophils); assay type: cell-based; conditions: for times more active than f-Met-Phe-OH: chemotactic activity and lysosomal enzyme secretion-inducing activity alike
Procedure: Rabbit polymorphononuclear leukocytes (neutrophils) were obtained 12 to 14 hours after the intraperitoneal injection of 0.1 percent glycogen, as described in Becker et al (Z. Immunitaetsforsch Exp. Klin. Immunol., Volume 143, Page 466 1972). They were washed in Hanks' balanched salt solution containing 0.01 M tris (hydroxymethyl) aminomethane, pH 7.2, 1 mg/ml of glucose, and 1 mg/ml of crystalline bovine serum albumin. The Hanks' balanced salt solution was the buffer used throughout the work.
The assay employed a modified Boyden chamber as described by Becker et al, supra. […] The loaded chambers were incubated for 30 minutes at 37° C. This time interval was chosen as giving, for the particular batch of filters used, the greatest difference between the number of cells moving into the filter with no peptide in the lower compartment (background) and the maximum number of cells moving into the filter when stimulated by peptide. At the end of the incubation the filters were removed and stained and the number of cells in five high-power (400 magnification) fields (5 HPF) were counted and averaged. The results reported are the means of duplicate chambers.
The migration enhancing activities of different peptides were compared essentially as described by Schiffmann et al (J. Immunol., Volume […], Page 1830, 1975) and Showell et al (J. Immunol., Volume 116, Page 99, 1976). In measuring the relative activity of the peptides, a peptide was diluted so that each concentration was one quarter that of the next higher concentration. The concentrations of peptides were chosen on the basis of preliminary experiments to cover the range giving minimum to maximal activity. The chemotactic activity plotted against the logarithm of the molar concentration of peptide yielded a sigmoidal-shaped dose-response curve. Different peptides tested at the same time with the same cells gave curves which were parallel to each other in their linear portions and had the same maximum. The activities of the different peptides are reported as the ED50, i.e., the concentration of chemotactic factor giving 50 percent of the maximum activity.
The results are reported as the means ED50 ±SE (standard error) as determined by at least three separate experiments. In this assay, the lower the value of the ED50, the greater is the chemotactic activity.

neutrophils = assay type: cell-based, rabbit
Procedure: The cytochalasin B was diluted from a stock solution containing 4 mg/ml in dimethyl sulphoxide. […] The mixtures were then incubated for five minutes at 37° C. (the release is completed in one minute of less under these conditions) and the tubes centrifuged at 2500 rpm (1400 g) for five minutes at 4° C.
The total concentration of enzyme was measured by lysing the cells with buffer containing 0.1 percent Triton X-100 (Beckmann Instruments, Inc., Fullerton, Calif.). […] The lactic dehydrogenase of each supernate was measured to insure that the peptides induced no release of this cytoplasmic marker.
The lysosomal enzyme-inducing activity for each peptide was obtained from the dose-response curve as its ED50, i.e., the molar concentration of peptide causing 50 percent of the maximal release of either lysozyme or β-glucuronidase. Again, the lower the value of the ED50, the greater is the lysosomal enzyme secretion-inducing activity.

peritoneal neutrophils = experiment: Test for true chemotaxis (Zigmond and Hirsch technique); assay type: cell-based, rabbit
Excerpt: Increased penetration of cells into or through the filter of a Boyden chamber system under the stimulus of a chemical agent is generally taken as indicating the chemotactic activity of the agent. Zigmond and Hirsch (J. Exp. Med., Volume 137, Page 387, 1973) have pointed out that the increased migration could result from a response directed by the chemical gradient, that is from chemotaxis, or from increased random locomotion or both. These authors have described a technique for determining if the movement of the cells into the filter of a Boyden chamber system under the influence of different gradients is greater than could be expected on the basis of increased rates of locomotion alone and to that extent is due to a true chemotactic response.
In testing f-Met-Leu-Phe-OH for true chemotaxis, 5×10^6 /ml of washed peritoneal neutrophils obtained twelve hours after the administration of 0.1 percent glycogen were suspended in varying concentrations of the peptide and placed in the upper compartment of a modified Boyden chamber. […] Using the micrometer of the fine adjustment of the microscope, the distance was measured from the top of the filter to the farthest plane of focus still containing two cells. This distance was determined across five fields and averaged. […] The test results were analyzed as described by Zigmond and Hirsch. […]

[2] = target: T1, surface receptor of rabbit polymorphonuclear leukocytes (Oryctolagus cuniculus, UniProt Q05394); experiment: Inhibition of F-Nle-leu (3H)PHE binding to rabbit PMN
T1 construct: endogenous in cells; host or cells: rabbit polymorphonuclear leukocytes (neutrophils)
T1 sequence (Q05394 1-352): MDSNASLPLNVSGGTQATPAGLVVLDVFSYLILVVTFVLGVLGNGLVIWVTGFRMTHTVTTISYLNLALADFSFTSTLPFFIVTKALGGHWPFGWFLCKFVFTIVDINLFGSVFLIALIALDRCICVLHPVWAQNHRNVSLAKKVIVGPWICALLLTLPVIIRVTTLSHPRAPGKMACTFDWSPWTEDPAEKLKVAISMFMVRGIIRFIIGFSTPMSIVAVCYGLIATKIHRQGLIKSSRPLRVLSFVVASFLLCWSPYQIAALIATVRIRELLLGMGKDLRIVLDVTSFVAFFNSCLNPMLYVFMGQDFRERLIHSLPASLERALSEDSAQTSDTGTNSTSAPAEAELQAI

[3] = system: Escherichia coli ATCC 25922; experiment: Kirby-Bauer disc assay, inhibitory zone size; assay type: cell-based; conditions: E. coli
Procedure: (§1) In these tables antimicrobial activity is expressed as inhibitory zone size as performed by the Kirby-Bauer assay.
(§2) The experiments in Tables 10-14 were performed using the following bacteria, media and experimental protocol:
(§3) The bacteria were Escherichia coli ATCC 25922 and Pseudomonas aeruginosa ATCC 27835.
(§4) The media was Trypticase soy agar (Baltimore Biological Laboratories, BBL) used as a general growth medium. Broth media was Brain heart infusion broth (BBL) for E. coli and medium 81 [trypticase soy broth without dextrose plus 1% potassium nitrate] for P. aeruginosa.
(§5) Antimicrobial susceptibility was tested on M9 medium [a glucose minimal salts medium (Miller, 1972)] solidified with 1.5% agar (Difco) for the base or 0.7% agar for overlay.
The following is the experimental protocol: Broth cultures of E. coli or P. aeruginosa were grown overnight in broth at 35° C. Cultures were diluted to visually match a 0.5 McFarland turbidity standard (Matsen and Barry, 1974); the numbers of organisms in this suspension ordinarily were .congruent.10^8 viable cells per ml. Ten microliter (ul) was inoculated into 10 ml. of 0.7% M9 agar that was melted and cooled to 46°-50° C. This was overlaid onto a 50 ml base of 1.5% M9 agar in 15 cm diameter petri dishes. The agar overlay was allowed to harden at room temperature for 30 min. Antimicrobial tests disks were placed on the surface of the agar, and the plates were incubated overnight at 35° C. Diameters of zones of inhibition of bacterial growth were measued with a vernier caliper and recorded to the nearest 0.1 mm.

[4] = system: PMN (neutrophil) from human peripheral blood
Procedure: (§6) The neutrophil (PMN) experiments used 3μ nitrocellulose filters and the monocyte (MN) experiments used 5μ polycarbonate filters. PMNs and MNs were prepared from human peripheral blood by Ficoll-Hypaque and dextran sedimentation techniques. […] PMN experiments were incubated at 37° C. for 3 hours, MN experiments for 90 minutes. After this the filters were removed and stained and counted visually with a microscope.

[5] = system: MN (monocyte) from human peripheral blood
Procedure: as §6

leukocytes = conditions: relatively weak chemoattractants; cited from earlier work
[6] = system: Pseudomonas aeruginosa ATCC 27835; experiment: Kirby-Bauer disc assay, inhibitory zone size; assay type: cell-based; conditions: P. aeruginosa; disc FML alone; 6 mm = disc, no inhibition
Procedure: as §1, §2, §3, §4, §5
The following is the experimental protocol: Broth cultures of E. coli or P. aeruginosa were grown overnight in broth at 35° C. Cultures were diluted to visually match a 0.5 McFarland turbidity standard (Matsen and Barry, 1974); the numbers of organisms in this suspension ordinarily were .congruent.10^8 viable cells per ml. Ten microliter (ul) was inoculated into 10 ml. of 0.7% M9 agar that was melted and cooled to 46°-50° C. This was overlaid onto a 50 ml base of 1.5% M9 agar in 15 cm diameter petri dishes. […] Diameters of zones of inhibition of bacterial growth were measued with a vernier caliper and recorded to the nearest 0.1 mm.

[7] = system: human polymorphonuclear leukocytes; experiment: Chemotaxis for human polymorphonuclear leukocytes; assay type: cell-based; conditions: human PMN, FIG. 2 text and summary (Table 6)
[8] = system: Pseudomonas aeruginsa, strain Mangalore; conditions: EXPT 1-3 on separate lines
[9] = system: 4 strains of Pseudomonas aeruginosa
Procedure: Antimicrobial activity was assayed by the MIC Technique using 4 strains of Pseudomonas aeruginosa.

[10] = concentration giving 50 percent of maximum activity, mean of at least three experiments, 30 minutes at 37° C.
[11] = molar concentration causing 50 percent of maximal release, 10 μg/ml cytochalasin B, five minutes at 37° C.
[12] = [F-Met-Leu-Phe] 10^-6, Sulfadiazine 5 μg
[13] = [F-Met-Leu-Phe] 10^-6, Sulfadiazine 50 μg
[14] = [F-Met-Leu-Phe] 10^-6, Sulfadiazine 100 μg
[15] = [F-Met-Leu-Phe] 10^-7, Sulfadiazine 5 μg
[16] = [F-Met-Leu-Phe] 10^-7, Sulfadiazine 50 μg
[17] = [F-Met-Leu-Phe] 10^-7, Sulfadiazine 100 μg
[18] = [F-Met-Leu-Phe] 10^-7, Sulfadiazine 250 μg
[19] = [F-Met-Leu] 10^-3, Sulfadiazine 5 μg
[20] = [F-Met-Leu] 10^-3, Sulfadiazine 25 μg
[21] = [F-Met-Leu] 10^-3, Sulfadiazine 50 μg
[22] = [F-Met-Leu] 10^-3, Sulfadiazine 100 μg
[23] = [F-Met-Leu] 10^-3, Sulfadiazine 250 μg
[24] = [F-Met-Leu] 10^-4, Sulfadiazine 5 μg
[25] = [F-Met-Leu] 10^-4, Sulfadiazine 25 μg
[26] = [F-Met-Leu] 10^-4, Sulfadiazine 50 μg
[27] = [F-Met-Leu] 10^-4, Sulfadiazine 100 μg
[28] = [F-Met-Leu] 10^-4, Sulfadiazine 250 μg

CSCC[C@H](NC=O)C(=O)N[C@@H](CC(C)C)C(=O)N[C@@H](Cc1ccccc1)C(=O)O [FMLP, formyl-methionyl-leucyl-phenylalanine]
times more active than f-Met-Phe-OH [1]: 5,000 times | Chemotactic Activity ED50 ± SE [1, 10]: 7.0 ± 1.7 × 10^-11 M | ED50 ± SE B-Glucoronidase (neutrophils; [11]): 2.6 ± 0.32 × 10^-10 M | ED50 ± SE Lysosyme (neutrophils; [11]): 2.4 ± 0.31 × 10^-10 M | distance cells moved farther than predicted (peritoneal neutrophils; positive gradient (peptide below greater than above the filter)): greater than 10 μm | true chemotaxis (experimental vs predicted values) (peritoneal neutrophils; sixty minutes at 37° C., 3.0 μm pore size filter): truly chemotactic | pIC50 [2]: 9.30

Nc1ccc(S(=O)(=O)Nc2ncccn2)cc1 [Sulfadiazine, sulfadiazine]
Zone Diameter ([3]; disc 10 μg, alone): 28.0 mm | Zone Diameter ([3]; disc 25 μg, alone): 32.0 mm | % Inhibition PMN [4, 12]: 10.0% | % Inhibition PMN ([4]; [F-Met-Leu-Phe] 10^-6, Sulfadiazine 25 μg): 8.0% | % Inhibition PMN [4, 13]: 39.5% | % Inhibition PMN [4, 14]: 49.0% | % Inhibition PMN [4, 15]: 16.8% | % Inhibition PMN ([4]; [F-Met-Leu-Phe] 10^-7, Sulfadiazine 25 μg): 18.0% | % Inhibition PMN [4, 16]: 65.8% | % Inhibition PMN [4, 17]: 70.8% | % Inhibition PMN [4, 18]: 88.0% | % Inhibition PMN [4, 19]: 19.0% | % Inhibition PMN [4, 20]: 38.0% | % Inhibition PMN [4, 21]: 48.7% | % Inhibition PMN [4, 22]: 73.3% | % Inhibition PMN [4, 23]: 83.9% | % Inhibition PMN [4, 24]: 1.0% | % Inhibition PMN [4, 25]: 14.0% | % Inhibition PMN [4, 26]: 37.5% | % Inhibition PMN [4, 27]: 53.0% | % Inhibition PMN [4, 28]: 41.0% | % Inhibition MN [5, 12]: 22.5% | % Inhibition MN [5, 13]: 21.0% | % Inhibition MN [5, 14]: 82.0% | % Inhibition MN [5, 15]: 14.6% | % Inhibition MN [5, 16]: 13.7% | % Inhibition MN [5, 17]: 41.7% | % Inhibition MN [5, 18]: 96.6% | % Inhibition MN [5, 19]: 2.5% | % Inhibition MN [5, 20]: 13.0% | % Inhibition MN [5, 21]: 36.7% | % Inhibition MN [5, 22]: 43.3% | % Inhibition MN [5, 23]: 98.0% | % Inhibition MN [5, 24]: 20.0% | % Inhibition MN [5, 25]: 17.5% | % Inhibition MN [5, 26]: 17.0% | % Inhibition MN [5, 27]: 60.0% | % Inhibition MN [5, 28]: 97.5%

CC[C@H](C)[C@H](N)C1=N[C@H](C(=O)N[C@@H](CC(C)C)C(=O)N[C@H](CCC(=O)O)C(=O)N[C@H](C(=O)N[C@H]2CCCCNC(=O)[C@H](CC(N)=O)NC(=O)[C@@H](CC(=O)O)NC(=O)[C@H](Cc3cnc[nH]3)NC(=O)[C@@H](Cc3ccccc3)NC(=O)[C@H]([C@@H](C)CC)NC(=O)[C@@H](CCCN)NC2=O)[C@@H](C)CC)CS1 [bacitracin] ({Ileψ(thiazoline)Cys}-L[dE]IK[dOrn]I[dF]H[dD]N; lactam 4-C)
chemoattractant concentration (leukocytes): 10^-5 to 10^-6 M

CSCC[C@H](NC=O)C(=O)N[C@@H](CC(C)C)C(=O)O [f--Met--Leu--OH] (For-Met-Leu-OH)
Chemotactic Activity ED50 ± SE [1, 10]: 4.0 ± 0.45 × 10^-7 M | ED50 ± SE Lysosyme (neutrophils; [11]): 1.7 ± 0.17 × 10^-6 M | Zone Diameter ([3]; disc FML alone, 6 mm = disc, no inhibition): 6.0 mm | Zone Diameter [6]: 6.0 mm

CSCC[C@H](NC=O)C(=O)N[C@@H](CC(C)C)C(=O)N[C@@H](Cc1ccccc1)C(=O)N[C@@H](CCCCN)C(=O)O [f--Met--Leu--Phe--Lys--OH] (For-MLFK-OH)
Chemotactic Activity ED50 ± SE [1]: 7.0 ± 1.0 × 10^-10 M | times more active than f-Met-Phe-OH [1]: 500 times | ED50 ± SE B-Glucoronidase (neutrophils): 1.9 ± 0.3 × 10^-9 M | ED50 ± SE Lysosyme (neutrophils): 1.7 ± 0.5 × 10^-9 M

CSCC[C@H](NC(=O)[C@H](CCSC)NC(=O)[C@H](CCSC)NC(=O)[C@H](CCSC)NC=O)C(=O)O [f--Met--Met--Met--Met--OH] (For-MMMM-OH)
Chemotactic Activity ED50 ± SE [1]: 3.0 ± 0.13 × 10^-10 M | ED50 ± SE B-Glucoronidase (neutrophils): 3.0 ± 0.73 × 10^-9 M | ED50 ± SE Lysosyme (neutrophils): 2.4 ± 0.34 × 10^-9 M

CSCC[C@H](NC=O)C(=O)N[C@@H](CCSC)C(=O)N[C@@H](Cc1ccccc1)C(=O)O [f--Met--Met--Phe--OH] (For-Met-Met-Phe-OH)
Chemotactic Activity ED50 ± SE [1, 10]: 2.1 ± 0.49 × 10^-10 M | ED50 ± SE B-Glucoronidase (neutrophils): 1.8 ± 0.24 × 10^-9 M | ED50 ± SE Lysosyme (neutrophils): 1.9 ± 0.4 × 10^-9 M

CSCC[C@H](NC=O)C(=O)N[C@@H](Cc1ccccc1)C(=O)O [f--Met--Phe--OH] (For-Met-Phe-OH)
Chemotactic Activity ED50 ± SE [1, 10]: 4.1 ± 0.95 × 10^-7 M | ED50 ± SE B-Glucoronidase (neutrophils): 2.0 ± 0.42 × 10^-6 M | ED50 ± SE Lysosyme (neutrophils; [11]): 1.5 ± 0.39 × 10^-6 M

CCCC[C@H](NC=O)C(=O)N[C@@H](CC(C)C)C(=O)N[C@@H](Cc1ccccc1)C(=O)O [f--Nle--Leu--Phe--OH] (For-[Nle]-Leu-Phe-OH)
Chemotactic Activity ED50 ± SE [1]: 6.6 ± 1.2 × 10^-10 M | ED50 ± SE B-Glucoronidase (neutrophils): 1.9 ± 0.2 × 10^-9 M | ED50 ± SE Lysosyme (neutrophils): 1.5 ± 0.2 × 10^-9 M

CSCC[C@H](NC=O)C(=O)N[C@@H](Cc1ccccc1)C(=O)N[C@@H](CC(C)C)C(=O)O [f-Met-Phe-Leu-OH] (For-Met-Phe-Leu-OH)
times less active than f-Met-Leu-Phe-OH ([1]; chemotactic and lysosomal enzyme secretion-inducing activities): 500 times

formyl-Met-Leu-phe-silver sulfadiazine [FMLP-AgSDZ]
ED50, M concentration giving 50% max activity [7]: 96 nM | ED50, M concentration giving 50% max activity ([7]; listed as FMLP--AgSDZ): 78 nM | ID50, molar concentration which displaced 50% of a labeled attractant from the cell receptor ([2]; F-Nle-leu (3H)PHE, rabbit PMN): 2 nM | MIC at 24h [8]: 40 μg/m and 80 μg/m | concentration at which all strains were inhibited (MIC Technique) [9]: 80 μm/ml

gramicidin
chemoattractant concentration (leukocytes): 10^-5 to 10^-6 M

tyrocidin
chemoattractant concentration (leukocytes): 10^-5 to 10^-6 M
